Data as given in patent publication US6635665B2, “Remedies or preventives for pulmonary insufficiency containing diaminotrifluoromethylpyridine derivatives” (Ishihara Sangyo Kaisha, Ltd., priority 2000, dated 2003).

Tested on: LPS induced rat ARDS model
Test: Therapeutic effect on lipopolysaccharide (LPS) induced rat ARDS model
Type: in vivo
Text: The therapeutic effect of N-(2-ethylsulfonylamino-5-trifluoromethyl-3-pyridyl)cyclohexanecarboxamide sodium salt hydrate (hereinafter referred to as compound 1) on LPS induced rat ARDS model was examined.
The compound 1 was used as a drug formulation. The formulation composition (content per one vial) was as follows.
To Crj: CD(SD)IGS male rats (7 weeks old) (Charles River Japan Inc.), LPS (derived from Salmonella enteritidis; L6011, Lot. 27H4127, manufactured by Sigma) diluted with a phosphate buffer solution (PBS) was administered by spraying it on the trachea in a dose of 8 mg/kg (0.5 ml/rat) by means of an atomizer (endotracheal liquid atomizing apparatus 1A-1B, manufactured by Penn Century) to induce ARDS. For normal group rats, PBS was similarly sprayed.
A drug formulation of the compound 1 diluted with 5% glucose was subcutaneously administered continuously in a dose of 0.3 mg/kg/hr as calculated as anhydride of the compound 1 by means of an osmotic pump from immediately after the induction to the time of autopsy (24 hours after). To non-treated group rats, 5% glucose used as the solvent was administered similarly.
24 Hours after the administration of LPS, measurement of the body weight and the lung wet weight, biochemical examination of blood and pathological and histopathological examinations were carried out with respect to every surviving rats.
No death was confirmed 24 hours after the LPS administration, and thus various examinations were carried out with respect to every rat. Here, the pathological score was obtained by evaluating each rat in five stages of −(no significant lesion), ±(slight), +(mild), ++(moderate) and +++(marked), and allotting 0, 0.5, 1, 2 and 3 points, respectively, to obtain the average of each group.

[1] = Crj:CD(SD)IGS male rats, LPS 8 mg/kg on the trachea, 0.3 mg/kg/hr x 24 hr subcutaneous by osmotic pump, 24 hours after LPS, score 0-3, non-treated group 2.7, P < 0.01 vs. non-treated group
[2] = Crj:CD(SD)IGS male rats, LPS 8 mg/kg on the trachea, 0.3 mg/kg/hr x 24 hr subcutaneous by osmotic pump, 24 hours after LPS, score 0-3, non-treated group 2.8, P < 0.01 vs. non-treated group

SMILES: CCS(=O)(=O)Nc1ncc(C(F)(F)F)cc1NC(=O)C1CCCCC1.O.[Na] [Compound 1, N-(2-ethylsulfonylamino-5-trifluoromethyl-3-pyridyl)cyclohexanecarboxamide sodium salt hydrate]
- Histopathological findings of alveoli: Collapse of alveolar wall (average of score in each group), Mean [1]: 1.2
- Histopathological findings of alveoli: Hemorrhage in alveoli (average of score in each group), Mean [1]: 1.5
- Histopathological findings of alveoli: Alveolar edema (average of score in each group), Mean [2]: 1.4
- Histopathological findings of alveoli: Fibrin deposit in alveoli (average of score in each group), Mean [2]: 1.5
- Autopsy findings of lung: Edema (average of score in each group), Mean (Crj:CD(SD)IGS male rats, LPS 8 mg/kg on the trachea, 0.3 mg/kg/hr x 24 hr subcutaneous by osmotic pump, autopsy 24 hours after LPS, score 0, 0.5, 1, 2, 3 for -, ±, +, ++, +++, non-treated group 0.4): 0.1
- Autopsy findings of lung: Hemorrhage (average of score in each group), Mean (Crj:CD(SD)IGS male rats, LPS 8 mg/kg on the trachea, 0.3 mg/kg/hr x 24 hr subcutaneous by osmotic pump, autopsy 24 hours after LPS, score 0-3, non-treated group 1.0): 0.5
- Autopsy findings of lung: Congestion (average of score in each group), Mean (Crj:CD(SD)IGS male rats, LPS 8 mg/kg on the trachea, 0.3 mg/kg/hr x 24 hr subcutaneous by osmotic pump, autopsy 24 hours after LPS, score 0-3, non-treated group 2.8, P < 0.01 vs. non-treated group): 2.2
- Collapse of the alveolar wall, alveolar edema and hemorrhage, and fibrin deposit in the alveoli (LPS induced rat ARDS model, compound 1 administered group (0.3 mg/kg/hr subcutaneous, 24 hours) compared with non-treated group, result in words): reduced
- Inhibition effect against ARDS pathological progress (LPS induced rat ARDS model, compound 1 administered group (0.3 mg/kg/hr subcutaneous, 24 hours), result in words): remarkable inhibition effect
